The nature of assay [1]: Quantitative sensory evaluation test of kokumi-imparting activity in water with sodium glutamate, inosine monophosphate and sodium chloride. Type of assay: in vivo, human. Details: key: *: Unmeasurable: Kokumi-imparting activity was too strong and could not be measured by the sensory evaluation.
Method: Sample solutions that became acidic after dissolution of the samples were adjusted to pH 6.8 to 7.2 with NaOH before use. Sensory evaluation scores were used for evaluation based on the control sample (0 points) and the glutathione sample (3 points), and the test was performed with n=3.
The sample solutions that became acidic after dissolution of the samples were adjusted to pH 6.8 to 7.2 with NaOH before use. Sensory evaluation scores were used for evaluation based on the control sample (0 points) and the glutathione sample (3 points), and the test was performed with n=5.
Sample solutions that became acidic after dissolution of the samples were adjusted to pH 6.8 to 7.2 with NaOH before use. Sensory evaluation scores were used for evaluation based on the control sample (0 points) and the glutathione sample (3 points), and the test was performed with n=12.
Assay [2] in a line: Quantitative sensory evaluation test: kokumi-imparting activity of peptides combined with known calcium receptor activators or additives. The conditions noted are these: for Intensity of kokumi: Aftertaste / Intensity of kokumi: First and middle taste: alone, n=12, 0 control, 3 intense, 6 extremely intense. Type of assay: in vivo, human. Here is the method:
The intensity of the kokumi-imparting activity of each peptide having confirmed calcium receptor activation activity and a known calcium receptor activator used in combination was measured by a quantitative sensory evaluation test, performed as follows: Samples of γ-Glu-Cys-Gly (glutathione) or γ-Glu-Val-Gly (0.0001 to 1 g/dl), or these samples combined with a calcium receptor activator such as calcium lactate, protamine or polylysine, or GABA (addition concentration: 0.0001 to 1 g/dl) were added to distilled water containing sodium glutamate (0.05 g/dl), inosine monophosphate (0.05 g/dl), and sodium chloride (0.5 g/dl), and the intensity of the kokumi-imparting activity was measured. Sample solutions that became acidic after dissolution of the samples were adjusted to pH 6.8 to 7.2 with NaOH before use. Sensory evaluation scores were used to evaluate as follows: 0 points for the control sample, 3 points for intense activity (as intensity of 0.05 g/dl γ-Glu-Cys-Gly and 0.005 g/dl γ-Glu-Val-Gly), and 6 points for extremely intense activity (as twice intensity of 0.05 g/dl γ-Glu-Cys-Gly and 0.005 g/dl γ-Glu-Val-Gly), and the test was performed with n=12.

[3] abbreviates: Table 6, 0.01 g/dl, n=5, control 0, glutathione 3 points.
Setting [4] is: Table 7, 0.01 g/dl, n=12, control 0, glutathione 3 points.
Where [5] appears, read: Table 5, 0.1 g/dl, n=3, control 0, glutathione 3 points.
The mark [6] stands for this setting: Table 6, 0.1 g/dl, n=5, control 0, glutathione 3 points.
Where [7] appears, read: Table 7, 0.1 g/dl, n=12, control 0, glutathione 3 points.

On to `CC(C)[C@H](NC(=O)CC[C@H](N)C(=O)O)C(=O)NCC(=O)O` [γ-Glu-Val-Gly], for which the “Intensity of kokumi: Aftertaste” value in assay [1] (setting [3]) was 3.0 points; in assay [1] (Table 6, 0.1 g/dl, n=5), “*”; in assay [1] (setting [4]), 3.0 points; in assay [2] (0.005 g/dl), 3.0 points. In addition, the “Intensity of kokumi: First and middle taste” value in assay [1] (setting [3]) was 3.0 points; in assay [1] (Table 6, 0.1 g/dl, n=5), “*”; in assay [1] (setting [4]), 3.0 points; in assay [2] (0.005 g/dl), 3.0 points.
For the molecule `N[C@@H](CCC(=O)N[C@@H](CS)C(=O)NCC(=O)O)C(=O)O` [γ-Glu-Cys-Gly, reference compound], the “Intensity of kokumi: Aftertaste” value in assay [1] (setting [5]), in assay [1] (setting [6]), in assay [1] (setting [7]) and in assay [2] (0.05 g/dl) was 3.0 points throughout. Moreover, the “Intensity of kokumi: First and middle taste” value in assay [1] (setting [5]), in assay [1] (setting [6]), in assay [1] (setting [7]) and in assay [2] (0.05 g/dl) was 3.0 points in each case. Also, the “kokumi-imparting activity when used with a known calcium receptor activator or the like such as calcium” value in assay [2] (conclusion from Table 13) is “can have improved kokumi-imparting activity”.

These data come from US8420144B2, “Kokumi-imparting agent, method of using, and compositions containing same” (Ajinomoto Co., Inc., priority 2005, dated 2013).
